Test results reported in patent US20090281136A1, “PRASUGREL PHARMACEUTICAL FORMULATIONS” (priority 2008, published 2009).

Test: Drug-excipient compatibility study (impurity formation on storage at 40° C. and 75% relative humidity)
Format: physicochemical
Experimental: Prasugrel hydrochloride and mixtures with excipients in the weight ratios stated below are mixed well and sifted through an ASTM #40 mesh sieve. The mixture is placed into open glass vials, stored at 40° C. and 75% relative humidity for four weeks, and samples are analyzed at intervals to evaluate the extent of impurity formation. Values for impurities in the table below are calculated as percent by weight of the original prasugrel content.

Which “Total Impurities, 1 Week” value (1 week at 40° C. and 75% relative humidity, open glass vials) does the source give for `CC(=O)Oc1cc2c(s1)CCN(C(C(=O)C1CC1)c1ccccc1F)C2` (stereo not drawn) [Prasugrel, 5-[2-cyclopropyl-1-(2-fluorophenyl)-2-oxoethyl]-4,5,6,7-tetrahydrothieno[3,2-c]pyridin-2-yl acetate] here?
Its value is 0.6547 percent by weight of the original prasugrel content.

What about the “Total Impurities, 2 Weeks” value (2 weeks at 40° C. and 75% relative humidity, open glass vials) of the same compound?
Its value is 0.6982 percent by weight of the original prasugrel content.

And the “Total Impurities, 3 Weeks” value (3 weeks at 40° C. and 75% relative humidity, open glass vials)?
The value was 0.7488 percent by weight of the original prasugrel content.

And the “Total Impurities, 4 Weeks” value (4 weeks at 40° C. and 75% relative humidity, open glass vials)?
Its value is 0.8998 percent by weight of the original prasugrel content.

What about the “Total Impurities, Initial” value (Initial, open glass vials) of the same compound?
The value was 0.6301 percent by weight of the original prasugrel content.

And the “Stability in the presence of the excipients studied” value (accelerated stability testing conditions)?
Its value is “acceptable stability”.
